Experimental data from PMC8861431, “Tissue Pharmacokinetic Properties and Bystander Potential of Hypoxia-Activated Prodrug CP-506 by Agent-Based Modelling” (Frontiers in Pharmacology, 2022).
“And” between values parts separate entries of the source, which are not always exact repeats. Identical values can stand only once.

How the values were obtained:
Format in all cases: cell-based, human
[1] = system: PORko-G cell line (POR-knockout HCT-116); assay: Monolayer clonogenic assay (with monolayer ABM fit)
Procedure: (§1) Cells (4.8 x 10^5 cells) were seeded with 2 ml culture medium into 6-well plates and left to attach for 2 h in a humidified 37°C incubator. Compounds were then prepared in culture medium and added in a 500 µl volume to each well. Plates were returned to a humidified 37°C incubator for the duration of the drug exposure (4 h). Aerobic and anoxic experiments were performed as described above. Plates were then removed from the anaerobic chamber and processed alongside the aerobic cultures. Cells were detached from monolayer by trypsinisation and plated at serial dilutions in 6-well plates. Cells were left to grow in a standard 37°C incubator for 10 days until the controls formed discrete colonies comprised of at least 50 cells. Colonies were visualized by staining with methylene blue (2 g/L in 50% aqueous ethanol) for 30 min. The number of colonies with at least 50 cells was manually counted to determine the plating efficiency. The surviving fraction was determined as the ratio of plating efficiency of treated cells to that of the controls.
(§2) An agent-based model (ABM) employing a one-dimensional approximation for monolayers was used to develop a cellular PK model, as described in further detail elsewhere ([Hong et al., 2018b]; [Mao et al., 2018]). The mathematical framework assumes that solute concentrations in the medium are dependent only on the depth (on the z coordinate) and not the lateral position (x,y) so that all cells are exposed to the same concentration of nutrients and drugs within the monolayer culture. Moreover, all cells have the same rate of metabolism and volume growth at any instance with variability allowed in cell volume, rate of cell division and cell death. Monolayer ABM simulations were performed on a desktop Windows PC (Intel core I7 processor) from a Qt (Qt Company, https://www.qt.io/) graphical user interface passing parameters to a DLL built with Fortran95. The monolayer ABM uses a finite difference method to solve reaction-diffusion equations for each compound (N) in the medium and cells. Parameters for the cellular uptake and metabolism were fitted to the concentration-time profiles of CP-506 and its metabolites in monolayer cultures of POR-R cells using a linear (first order) cell transport and metabolism model. Terms for the extracellular instability of CP-506 and its metabolites were set at their respective values in media stability studies, and media diffusion coefficients were estimated from the support membrane diffusion coefficients described below. Experimental data describing the kinetics of CP-506 uptake under aerobic conditions was fitted by adjusting the permeability coefficients kin and kout for each compound. These values were fixed for anoxic experiments to allow for parameter estimation of the rate of intracellular CP-506 metabolism (kmet0) as well as the intracellular/extracellular partitioning ratio (kin and kout) and metabolic instability (kmet0) for its cytotoxic metabolites.
(§3) The spheroid ABM is described in further detail elsewhere ([Hong et al., 2018b]; [Mao et al., 2018]). The model employs two 3D grids and two solvers, a coarse grid represents the culture medium and is embedded with a much finer grid that represents the spheroid in a small cubic region at the bottom of the well. The spheroid grows in a specified volume and depth of unstirred medium containing dissolved oxygen. The geometry of the model is lattice-based, in which cells occupy cubic sites on a regular 3D lattice and grow in volume at a rate dependent on the local oxygen concentration. Autonomous cell mobility and cell-cell forces are not simulated. Cell motion occurs only as a result of cell division. Cells divide when the volume reaches a pre-set value (Vdiv) and the resultant daughter cell occupies an adjacent empty lattice site. […] The oxygen concentration at the air-medium boundary is defined by the gas phase of the culture environment. […]

[2] = system: POR-R cell line (POR-overexpressing HCT-116); assay: as above; conditions: for k d M: kill probability rate constant in monolayer cultures: fitted by monolayer ABM to clonogenic survival under anoxia, set to zero for the prodrug, same kd assumed for metabolites
Procedure: as §1, §2, §3

[3] = system: HCT-116 cell line panel; assay: Anti-proliferative IC50 assay of authentic CP-506 metabolites; conditions: Homo sapiens, HCT-116, 120 h, read-out: Anti-proliferative IC50 of metabolite
Procedure: Cells (700–1,000 per well) were seeded with 100 µl culture medium into 96-well plates and left to attach for 2 h in a humidified 37°C incubator. Compounds were prepared in culture medium and serially diluted (1:3) in the well volume. […] Aerobic experiments were performed under standard tissue culture conditions (21% O2), and the anoxic experiments were performed in parallel in a 5% H2/Pd catalyst anaerobic chamber (Shellab Bactron, Sheldon manufacturing Inc., Cornelius, OR) using pre-equilibrated media and plasticware. All anoxia experiments were conducted using a catalyst-scrubbed anaerobic chamber, unless otherwise specified, with gas oxygen measurements of <1 ppm O2. Cells were then washed three times and left to grow for 96 h before cell density determination using a sulforhodamine B (SRB) assay ([Vichai and Kirtikara, 2006]). To this end, the cells were fixed by layering 50 µl of trichloroacetic acid (40% w/v in MilliQ water) on top of the culture media (150 µl) in each well for 1 h at 4°C. Plates were rinsed under running tap water and stained with 50 µl of SRB (0.4% w/v in MilliQ water containing 1% v/v acetic acid) for 30 min at room temperature. Plates were rapidly destained by rinsing three times in tap water containing 1% (v/v) acetic acid. The stain was solubilized by adding 100 µl of 10 mM unbuffered Tris base to each well with gentle rocking for 1 h. Plates were read on a Biotek ELx808 Absorbance Microplate Reader at 490 nm using KC4 software. The IC50 value (concentration required to reduce staining to 50% of the untreated control on the same plate) for each compound was determined by interpolation using a 4-parameter logistic regression model.
FIGURE 3 Hypoxia-dependent metabolism of CP-506 leads to the formation of a multitude of short-lived species with variable cytotoxicity. (A) Bioreductive metabolism of CP-506 under normoxic (21% O2) and anoxic conditions (<1 ppm O2). Concentrations of CP-506 and its metabolites (CP-506H, CP-506M and CP-506M-Cl2) were quantified by mass spectrometry with reference to the appropriate deuterated (D8) internal standard. Values are the mean ± SEM for three independent experiments. (B) Stability of CP-506 metabolites in culture medium (without cells) at 37°C. Concentrations were determined by mass spectrometry using standard curves generated from authenticated stocks. […] IC50 values are the mean ± SEM of duplicate wells for three independent experiments. T-tests were performed using GraphPad Prism 8 (ns, p-value > 0.05; *, p-value ≤ 0.05; **, p-value ≤ 0.01; ***, p-value ≤ 0.001).

[4] = anoxia, estimated from clonogenic survival by ABM

SMILES | Target k met0: rate constant for the maximum rate of metabolism in PORko-G cells under anoxia ([1]; anoxia, footnote d: assumed equivalent to the measured metabolites or from published PR-104A estimates) | k d M: kill probability rate constant in monolayer cultures [2] | IC50 [3] [µM] | Target k met0: rate constant for the maximum rate of metabolism in PORko-G cells under anoxia [1, 4] [min⁻¹] | IC50 ([1]; Homo sapiens, HCT-116, PORko-G monolayer, 4 h exposure, <1 ppm O2, read-out: Clonogenic IC50 under anoxia) [µM] | Differential in anoxic sensitivity between PORko-G and POR-R cell lines ([1]; monolayer clonogenic endpoint, anoxia) | IC50 ([2]; Homo sapiens, HCT-116, POR-R monolayer, 4 h exposure, <1 ppm O2, read-out: Clonogenic IC50 under anoxia) [µM]
CCN1CCN(C(=O)c2cc(N(CCCl)CCCl)c(S(C)(=O)=O)cc2N)CC1 [CP-506M-Cl2, (2-Amino-5-(bis(2-chloroethyl)amino)-4-(methylsulfonyl)phenyl)(4-ethylpiperazin-1-yl)methanone] | 0.1 ^d min^−1 | 0.01 | < 10 | – | – | – | –
CCN1CCN(C(=O)c2cc(N(CCBr)CCOS(C)(=O)=O)c(S(C)(=O)=O)cc2N)CC1 [CP-506M, 2-((4-amino-5-(4-ethylpiperazine-1-carbonyl)-2-(methylsulfonyl)phenyl)(2-bromoethyl)amino)ethyl methanesulfonate] | – | 0.01 | < 10 | 0.1 | – | – | –
CCN1CCN(C(=O)c2cc(N(CCBr)CCOS(C)(=O)=O)c(S(C)(=O)=O)cc2NO)CC1 [CP-506H, 2-((2-bromoethyl)(5-(4-ethylpiperazine-1-carbonyl)-4-(hydroxyamino)-2-(methylsulfonyl)phenyl)amino)ethyl methanesulfonate] | – | 0.01 | < 10 | 0.09 | – | – | –
CCN1CCN(C(=O)c2cc(N(CCBr)CCOS(C)(=O)=O)c(S(C)(=O)=O)cc2[N+](=O)[O-])CC1 [CP-506, 2-[(2-bromoethyl)-5-[(4-ethyl-1-piperazinyl)carbonyl]-2-(methylsulfonyl)-4-nitroanilino]ethyl methanesulfonate] | – | 0 | – | 0.0019 | 17.1 ± 3.4 | 22 fold and 20 fold | 0.8 ± 0.3
